Key:
[1] = Cytotoxicity against human MT2 cells after 48 hrs; assay type: cell-based; details: read-out: LD50
[2] = tested on: Human immunodeficiency virus 1; experiment: Antiviral activity against HIV1 LAI in MT2 cells assessed as inhibition of virus-induced cytopathic effect; assay type: functional; details: Human immunodeficiency virus 1, LAI, read-out: ED50 (the source's name)
[3] = molecular target: T1, Human immunodeficiency virus type 1 integrase (Human immunodeficiency virus 1, UniProt Q7ZJM1); experiment: Inhibition of HIV1 integrase catalyzed reactions
[4] = tested on: Human immunodeficiency virus 1; experiment: Antiviral activity against HIV1 in MT4 cells assessed as inhibition of virus-induced cytopathic effect by MTT assay; assay type: functional, organism-based; details: Human immunodeficiency virus 1, MT4
[5] = molecular target: T1, Human immunodeficiency virus type 1 integrase; experiment: Inhibition of HIV1 integrase by overall integration assay
[6] = molecular target: T1, Human immunodeficiency virus type 1 integrase; experiment: Inhibition of HIV1 integrase strand transfer activity
[7] = Cytotoxicity against human MT4 cells by MTT assay; assay type: cell-based
[8] = molecular target: T1, Human immunodeficiency virus type 1 integrase; experiment: Inhibition of HIV1 integrase in presence of Mn2+

T1 sequence (Q7ZJM1 whole entry): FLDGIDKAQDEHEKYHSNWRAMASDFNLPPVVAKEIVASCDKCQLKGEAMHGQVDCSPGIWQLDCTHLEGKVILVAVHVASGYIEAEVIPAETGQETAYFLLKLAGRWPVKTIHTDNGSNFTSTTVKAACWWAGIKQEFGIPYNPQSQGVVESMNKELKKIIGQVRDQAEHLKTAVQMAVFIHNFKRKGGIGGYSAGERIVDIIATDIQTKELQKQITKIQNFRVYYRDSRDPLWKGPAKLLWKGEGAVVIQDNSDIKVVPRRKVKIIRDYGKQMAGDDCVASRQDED

SMILES	CC50 at 48 h [1] [µM]	EC50 [2] [µM]	IC50 [3] [µM]	EC50 [4] [µM]	IC50 [5] [µM]	IC50 [6] [µM]	CC50 [7] [µM]	IC50 [8] [µM]
O=C(/C=C/c1ccc(O)c(O)c1)O[C@@H]1C[C@](O)(C(=O)O)C[C@@H](OC(=O)/C=C/c2ccc(O)c(O)c2)[C@H]1O	300	1.9	0.64	–	–	–	–	–
O=C(O)/C=C/c1ccc(O)c(O)c1CC(=O)O	–	–	–	> 44	1.34	1.09	44	–
O=C(O)/C=C/c1ccc(O)c(O)c1/C(=C/c1ccc(O)c(O)c1)C(=O)O	–	–	–	> 4.5	0.56	0.73	4.5	–
O=C(O)/C=C/c1ccc(O)c2c1C1C(=O)c3cc(O)c(O)cc3C1O2 (racemic)	–	–	–	> 23.3	0.15	0.3	23.3	–
O=C(O)/C=C/c1ccc(O)c(O)c1 [CAFFEIC ACID]	–	–	–	–	2.8	24	–	2.8
O=C(/C=C/c1ccc(O)c(O)c1)O[C@@H](C(=O)O)[C@@H](OC(=O)/C=C/c1ccc(O)c(O)c1)C(=O)O [CICHORIC ACID]	700	–	–	–	–	–	–	–

Source: ChEMBL document CHEMBL1156602, “Synthesis and antiviral properties of some polyphenols related to Salvia genus” (Bioorg Med Chem Lett, 2008)
